Patent US20240084258A1, “METHOD FOR PREPARING BROWN ADIPOCYTE” (KYOTO PREFECTURAL PUBLIC UNIVERSITY CORPORATION, priority 2015, published 2024)
Like-named read-outs stand apart in the source and are kept apart here.

Test system: human dermal fibroblasts (HDFs)
Description: Human normal skin-derived fibroblast (human dermal fibroblasts; HDFs) were suspended in a normal medium (10% FBS-added Dulbecco's modified minimum essential medium; DMEM). This was seeded in a 12-well plate at a concentration of 3×10^4 cells/well and culturing was started at 5% CO2/95% humidified air, 37° C. The next day (day 0), the culture supernatant was removed by suction and a normal medium (group 1), an adipocyte induction medium (group 2), or an adipocyte induction medium (groups 3-8) added with ALK5 inhibitor II at concentration of 4 μM was added at 1 mL/well.
The adipocyte induction medium is DMEM added with 1 nM T3, 1 μM Rosiglitazone, 0.5 mM isobutylmethylxanthine (IBMX), 0.5 μM dexamethason, 1 μg/mL Insulin and 10% FBS.
Once every 2 days, the medium was substituted by a fresh one. In groups 3-7, the cells were cultured in an adipocyte induction medium added with ALK5 inhibitor II only in the periods of Days 0-2, Days 0-4, Days 0-6, Days 0-8 and Days 0-10, respectively, and thereafter cultured in an adipocyte induction medium without addition of ALK5 inhibitor II. In group 8, the cells were cultured in an adipocyte induction medium added with ALK5 inhibitor II throughout the whole period of Days 0-14. On day 14, the medium was removed from each well by suction, the cells were washed with PBS(−) and total RNA was extracted from the cells by using RNA easy Mini Kit manufactured by Qiagen. cDNA was synthesized from the RNA by using Rever Tra Ace qPCR RT Master Mix. The cDNA was admixed with Real-time PCR Master Mix, primers specific to UCP1 gene or β actin gene and Taqman probe. qRT-PCR was performed using AB7300 Real-time PCR system. The mRNA level of UCP1 gene was quantified as a ratio to β actin gene mRNA and calculated with the value of fibroblast cultured in the normal medium as 1.

SMILES: Cc1cccc(-c2n[nH]cc2-c2ccc3ncccc3n2)n1 [ALK5 Inhibitor II, 2-(3-(6-Methylpyridin-2-yl)-1H-pyrazol-4-yl)-1,5-naphthyridine]
- UCP1 gene expression (conversion to brown adipocytes) (HDFs, ALK5 inhibitor II 4 μM in adipocyte induction medium, day 14, FIG. 13): converted to brown adipocytes strongly expressing UCP1 gene
- UCP1 gene expression (group 6: ALK5 inhibitor II 4 μM for days 0-8, then 6 days without it): the highest expression of UCP1 gene was induced
- UCP1 gene expression (groups 3-5, 7, 8: ALK5 inhibitor II 4 μM for Days 0-2, 0-4, 0-6, 0-10 or 0-14): High expression of UCP1 gene was also induced
